Source: US8455688B2, “HDAC inhibitors” (Lixte Biotechnology, Inc., priority 2007, dated 2013)
In brackets after ≈: the same amount, converted by molar mass. Like-named read-outs stand apart in the source and are kept apart here.

What was measured:
A. fumigatus = test: Broth dilution antifungal susceptibility testing, A. fumigatus; type: cell-based, Aspergillus fumigatus; details: Aspergillus fumigatus, 80% inhibition, read-out: minimum inhibitory concentration (MIC)
Experimental: (§1) A total of 23 isolates were tested to include 3 Candida albicans, 3 Candida glabrata, 3 Cryptococcus neoformans, 3 Aspergillus fumigatus, 3 Rhizopus oryzae, 3, Fusarium solani, 3 Pseudallescheria boydii, and 2 […]. All isolates were clinical isolates submitted to the Fungus Testing Laboratory for evaluation. Antifungal susceptibility testing was accomplished according to the methods outlined in the National Committee for Clinical Laboratory Standards, M-27A2, Reference Method for Broth Dilution Antifungal Susceptibility Testing of Yeasts; Approved Standard, and M38-A “Reference Method for Broth Dilution Antifungal Susceptibility Testing of Conidium-Forming Filamentous Fungi; Approved Standard”. This includes testing in RPMI-1640 with glutamine and without bicarbonate, an inoculum size of 0.5-2.5×10^3 for yeasts or […] for moulds, and incubation at 35° C. for 24 and 48 hours. […] Drug concentrations were 0.125-64 μg/ml. A 10 mg portion of each powder was weighed out and added to 1 ml of 100% DMSO for compound 205. The resulting concentration of […] was diluted to a working concentration of 6400 μg/ml for compound 205 in 100% DMSO. All subsequent dilutions were also made using the respective diluents. Final testing concentrations ranged from 0.125-64 μg/ml. The NCCLS recommended medium RPMI-1640 (Hardy Diagnostics, Santa Monica, Calif.) was utilized as the test medium. All isolates in this study were clinical isolates received in the Fungus Testing Laboratory for standard antifungal susceptibility testing and/or identification. Isolates, which were not sent for identification, were confirmed to assure testing integrity. A total of 23 were tested to include 3 Candida albicans, 3 Candida glabrata, 3 Cryptococcus neoformans, 3 Aspergillus fumigatus, 3 Rhizopus oryzae, 3, Fusarium solani, 3 Pseudallescheria boydii, and 2 […]. Minimum inhibitory concentrations (MIC) were determined at the first 24-hour interval where growth could be determined in the drug-free control tube.

T. rubrum = test: Broth dilution antifungal susceptibility testing, T. rubrum; type: cell-based, Trichophyton rubrum; details: Trichophyton rubrum, 80% inhibition, read-out: minimum inhibitory concentration (MIC)
Experimental: as §1

F. solani = test: Broth dilution antifungal susceptibility testing, F. solani; type: cell-based; details: Fusarium solani, 80% inhibition, read-out: minimum inhibitory concentration (MIC)
Experimental: as §1

C. glabrata = test: Broth dilution antifungal susceptibility testing, C. glabrata; type: cell-based, Candida glabrata; details: Nakaseomyces glabratus, 50% reduction in turbidity, read-out: minimum inhibitory concentration (MIC)
Experimental: as §1

S. apiospermum = test: Broth dilution antifungal susceptibility testing, S. apiospermum; type: cell-based, Pseudallescheria boydii; details: Scedosporium apiospermum, 80% inhibition, read-out: minimum inhibitory concentration (MIC)
Experimental: as §1

R. arrhizus = test: Broth dilution antifungal susceptibility testing, R. arrhizus; type: cell-based, Rhizopus oryzae; details: Rhizopus arrhizus, 80% inhibition, read-out: minimum inhibitory concentration (MIC)
Experimental: as §1

C. neoformans = test: Broth dilution antifungal susceptibility testing, C. neoformans; type: cell-based; details: Cryptococcus neoformans, 50% reduction in turbidity, read-out: minimum inhibitory concentration (MIC)
Experimental: as §1

C. albicans = test: Broth dilution antifungal susceptibility testing, C. albicans; type: cell-based, Candida albicans; details: Candida albicans, 50% reduction in turbidity, read-out: minimum inhibitory concentration (MIC)
Experimental: as §1

- MIC (A. fumigatus; 24 h, isolate 05-388, 24 hours): 16 µg/mL (≈ 44.8 µM)
- MIC (A. fumigatus; 24 h, isolate 06-4126, 24 hours): 16 µg/mL (≈ 44.8 µM)
- MIC (A. fumigatus; 24 h, isolate 07-2039, 24 hours): 32 µg/mL (≈ 89.5 µM)
- MIC (A. fumigatus; 48 h, isolate 05-388, 48 hours): > 64 µg/mL
- MIC (A. fumigatus; 48 h, isolate 06-4126, 48 hours): > 64 µg/mL
- MIC (A. fumigatus; 48 h, isolate 07-2039, 48 hours): > 64 µg/mL
- MIC (T. rubrum; 24 h, isolate 07-1743, 24 hours): 8 µg/mL (≈ 22.4 µM)
- MIC (T. rubrum; 24 h, isolate 07-2055, 24 hours): 8 µg/mL (≈ 22.4 µM)
- MIC (T. rubrum; 48 h, isolate 07-1743, 48 hours): 8 µg/mL (≈ 22.4 µM)
- MIC (T. rubrum; 48 h, isolate 07-2055, 48 hours): 8 µg/mL (≈ 22.4 µM)
- MIC (F. solani; 24 h, isolate 07-1399, 24 hours): > 64 µg/mL
- MIC (F. solani; 24 h, isolate 07-1755, 24 hours): > 64 µg/mL
- MIC (F. solani; 24 h, isolate 07-1867, 24 hours): > 64 µg/mL
- MIC (F. solani; 48 h, isolate 07-1399, 48 hours): > 64 µg/mL
- MIC (F. solani; 48 h, isolate 07-1755, 48 hours): > 64 µg/mL
- MIC (F. solani; 48 h, isolate 07-1867, 48 hours): > 64 µg/mL
- MIC (C. glabrata; 24 h, isolate 07-2964, 24 hours): 2 µg/mL (≈ 5.59 µM)
- MIC (C. glabrata; 24 h, isolate 07-2965, 24 hours): 2 µg/mL (≈ 5.59 µM)
- MIC (C. glabrata; 24 h, isolate 07-3013, 24 hours): 2 µg/mL (≈ 5.59 µM)
- MIC (C. glabrata; 48 h, isolate 07-2964, 48 hours): 32 µg/mL (≈ 89.5 µM)
- MIC (C. glabrata; 48 h, isolate 07-2965, 48 hours): 32 µg/mL (≈ 89.5 µM)
- MIC (C. glabrata; 48 h, isolate 07-3013, 48 hours): 32 µg/mL (≈ 89.5 µM)
- MIC (S. apiospermum; 24 h, isolate 07-1333, 24 hours): 64 µg/mL (≈ 179 µM)
- MIC (S. apiospermum; 24 h, isolate 07-1502, 24 hours): 32 µg/mL (≈ 89.5 µM)
- MIC (S. apiospermum; 24 h, isolate 07-1601, 24 hours): 8 µg/mL (≈ 22.4 µM)
- MIC (S. apiospermum; 48 h, isolate 07-1333, 48 hours): > 64 µg/mL
- MIC (S. apiospermum; 48 h, isolate 07-1502, 48 hours): > 64 µg/mL
- MIC (S. apiospermum; 48 h, isolate 07-1601, 48 hours): > 64 µg/mL
- MIC (R. arrhizus; 24 h, isolate 07-1870, 24 hours): 2 µg/mL (≈ 5.59 µM)
- MIC (R. arrhizus; 24 h, isolate 07-2044, 24 hours): 2 µg/mL (≈ 5.59 µM)
- MIC (R. arrhizus; 24 h, isolate 07-2078, 24 hours): > 64 µg/mL
- MIC (R. arrhizus; 48 h, isolate 07-1870, 48 hours): > 64 µg/mL
- MIC (R. arrhizus; 48 h, isolate 07-2044, 48 hours): > 64 µg/mL
- MIC (R. arrhizus; 48 h, isolate 07-2078, 48 hours): > 64 µg/mL
- MIC (C. neoformans; 24 h, isolate 07-2665, 24 hours): 32 µg/mL (≈ 89.5 µM)
- MIC (C. neoformans; 24 h, isolate 07-2737, 24 hours): 8 µg/mL (≈ 22.4 µM)
- MIC (C. neoformans; 24 h, isolate 07-2829, 24 hours): 16 µg/mL (≈ 44.8 µM)
- MIC (C. neoformans; 48 h, isolate 07-2665, 48 hours): 32 µg/mL (≈ 89.5 µM)
- MIC (C. neoformans; 48 h, isolate 07-2737, 48 hours): 16 µg/mL (≈ 44.8 µM)
- MIC (C. neoformans; 48 h, isolate 07-2829, 48 hours): 16 µg/mL (≈ 44.8 µM)
- MIC (C. albicans; 24 h, isolate 07-3006, 24 hours): 2 µg/mL (≈ 5.59 µM)
- MIC (C. albicans; 24 h, isolate 07-3011, 24 hours): 2 µg/mL (≈ 5.59 µM)
- MIC (C. albicans; 24 h, isolate 07-3012, 24 hours): 2 µg/mL (≈ 5.59 µM)
- MIC (C. albicans; 48 h, isolate 07-3006, 48 hours): 32 µg/mL (≈ 89.5 µM)
- MIC (C. albicans; 48 h, isolate 07-3011, 48 hours): 32 µg/mL (≈ 89.5 µM)
- MIC (C. albicans; 48 h, isolate 07-3012, 48 hours): 32 µg/mL (≈ 89.5 µM)
Compound: Nc1ccc(NC(=O)CCCCCNC(=O)c2ccccc2S)cc1 [Compound 209, 2-Mercapto-N-[5-(4-Aminophenylcarbamoyl)-pentyl]benzamide]
